Two compounds from ChEMBL document CHEMBL5247643, “Discovery and Characterization of BAY-805, a Potent and Selective Inhibitor of Ubiquitin-Specific Protease USP21” (J Med Chem, 2023) can be followed below.

The source made the active and inactive calls. The rule behind the calls is not given here. Bounds are passed on as bounds.

The subject of test [1] is MOLM-13. In words: Antiproliferative activity against human MOLM-13 cells assessed as reduction in cell viability up to 30 uM incubated for 72 hrs by CellTiter-Glo luminescent assay. Format: functional, cell-based. In general terms: ATP-based viability assays read luminescence as a measure of living cells.
Test [2] concerns MDA-MB-231. Nature of the test: Antiproliferative activity against human MDA-MB-231 cells assessed as reduction in cell viability up to 30 uM incubated for 72 hrs by CellTiter-Glo luminescent assay. Format: functional, cell-based.
Test [3] has as its system U2OS. Nature of the test: Antiproliferative activity against human U2OS cells assessed as reduction in cell viability up to 30 uM incubated for 72 hrs by CellTiter-Glo luminescent assay. The test is classed as functional, cell-based.
Test [4] has as its target Ubiquitin carboxyl-terminal hydrolase 9X (Homo sapiens) (UniProt Q93008). Nature of the test: Inhibition of human USP9X using ubiquitin rhodamine 110 as substrate at 10 to 50 uM by fluorometric assay. Conditions: dose 10-50 µM.
Test [5] deals with T1, Ubiquitin carboxyl-terminal hydrolase 21 (Homo sapiens) (UniProt Q9UK80).
T1 sequence (whole entry): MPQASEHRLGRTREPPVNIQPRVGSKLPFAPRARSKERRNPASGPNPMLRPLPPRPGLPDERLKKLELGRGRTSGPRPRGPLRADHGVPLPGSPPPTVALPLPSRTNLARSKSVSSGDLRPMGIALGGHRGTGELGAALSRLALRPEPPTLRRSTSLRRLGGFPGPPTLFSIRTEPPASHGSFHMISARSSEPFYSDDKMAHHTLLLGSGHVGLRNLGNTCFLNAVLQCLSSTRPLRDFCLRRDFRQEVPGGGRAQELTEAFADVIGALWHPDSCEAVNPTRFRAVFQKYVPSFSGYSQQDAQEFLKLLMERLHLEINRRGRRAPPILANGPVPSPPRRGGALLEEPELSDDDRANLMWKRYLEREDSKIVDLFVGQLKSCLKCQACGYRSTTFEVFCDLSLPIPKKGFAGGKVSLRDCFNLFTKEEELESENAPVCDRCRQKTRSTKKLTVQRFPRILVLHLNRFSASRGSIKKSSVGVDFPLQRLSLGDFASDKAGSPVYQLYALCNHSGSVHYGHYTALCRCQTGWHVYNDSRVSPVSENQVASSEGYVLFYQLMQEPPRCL
Nature of the test: Inhibition of human USP21 (209 to 563 residues) expressed in Escherichia coli BL21 (DE3) using ubiquitin rhodamine 110 as substrate assessed as remaining enzyme activity at 10 to 50 uM by fluorometric assay. Conditions: dose 10-50 µM.

The target in test [6] is T2, Ubiquitin carboxyl-terminal hydrolase 30 (Homo sapiens) (UniProt Q70CQ3).
T2 sequence (whole entry): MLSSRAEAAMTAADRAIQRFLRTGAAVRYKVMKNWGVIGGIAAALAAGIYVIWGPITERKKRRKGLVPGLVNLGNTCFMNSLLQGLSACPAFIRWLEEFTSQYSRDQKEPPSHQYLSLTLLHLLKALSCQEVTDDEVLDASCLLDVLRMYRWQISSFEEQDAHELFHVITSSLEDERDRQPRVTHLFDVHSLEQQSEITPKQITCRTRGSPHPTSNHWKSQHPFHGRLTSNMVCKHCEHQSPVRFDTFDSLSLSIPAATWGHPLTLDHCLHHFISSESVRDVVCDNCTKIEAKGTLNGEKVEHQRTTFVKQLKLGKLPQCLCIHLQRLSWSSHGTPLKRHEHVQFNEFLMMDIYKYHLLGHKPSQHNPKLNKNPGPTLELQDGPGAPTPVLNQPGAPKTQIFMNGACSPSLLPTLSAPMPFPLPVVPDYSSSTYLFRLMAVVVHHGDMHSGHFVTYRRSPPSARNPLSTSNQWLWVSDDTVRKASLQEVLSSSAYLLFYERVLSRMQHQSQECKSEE
In words: Inhibition of human USP30 (57 to 517 residues) expressed in Sf9 cells using ubiquitin rhodamine 110 as substrate assessed as remaining enzyme activity at 10 to 50 uM by fluorometric assay. Conditions: dose 10-50 µM.

Test [7] has as its target T3, Ubiquitin carboxyl-terminal hydrolase 15 (Homo sapiens) (UniProt Q9Y4E8).
T3 sequence (whole entry): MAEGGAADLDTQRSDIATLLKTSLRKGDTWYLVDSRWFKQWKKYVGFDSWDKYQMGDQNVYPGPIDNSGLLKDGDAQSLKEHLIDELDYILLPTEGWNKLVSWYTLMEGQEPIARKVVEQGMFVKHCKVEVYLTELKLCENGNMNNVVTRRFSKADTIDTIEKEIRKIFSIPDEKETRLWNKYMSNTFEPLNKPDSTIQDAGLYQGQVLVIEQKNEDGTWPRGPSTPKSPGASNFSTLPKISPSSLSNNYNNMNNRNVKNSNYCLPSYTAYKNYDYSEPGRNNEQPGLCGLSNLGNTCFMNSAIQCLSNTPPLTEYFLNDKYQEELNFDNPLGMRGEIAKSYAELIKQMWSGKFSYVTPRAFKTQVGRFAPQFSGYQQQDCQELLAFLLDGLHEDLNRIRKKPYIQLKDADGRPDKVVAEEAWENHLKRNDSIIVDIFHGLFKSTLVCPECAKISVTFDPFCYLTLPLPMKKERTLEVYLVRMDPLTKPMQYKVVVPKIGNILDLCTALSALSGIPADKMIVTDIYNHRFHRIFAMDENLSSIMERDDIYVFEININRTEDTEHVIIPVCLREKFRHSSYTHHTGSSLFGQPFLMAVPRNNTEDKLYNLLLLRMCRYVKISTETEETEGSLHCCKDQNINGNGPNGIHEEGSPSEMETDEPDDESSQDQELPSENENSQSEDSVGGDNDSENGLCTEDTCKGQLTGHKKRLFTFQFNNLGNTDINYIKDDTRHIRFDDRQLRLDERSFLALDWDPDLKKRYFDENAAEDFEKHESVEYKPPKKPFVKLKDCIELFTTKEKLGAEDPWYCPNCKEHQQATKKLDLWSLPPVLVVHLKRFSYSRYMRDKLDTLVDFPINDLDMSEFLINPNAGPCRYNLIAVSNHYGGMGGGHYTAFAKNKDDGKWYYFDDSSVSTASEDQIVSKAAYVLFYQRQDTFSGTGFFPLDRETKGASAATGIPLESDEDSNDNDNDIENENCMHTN
In words: Inhibition of human USP15 (1 to 952 residues) expressed in Sf9 cells using ubiquitin rhodamine 110 as substrate assessed as remaining enzyme activity at 10 to 50 uM by fluorometric assay. Particulars: dose 10-50 µM.

Chain of Ubiquitin carboxyl-terminal hydrolase 9X (Homo sapiens) (Q93008 whole entry): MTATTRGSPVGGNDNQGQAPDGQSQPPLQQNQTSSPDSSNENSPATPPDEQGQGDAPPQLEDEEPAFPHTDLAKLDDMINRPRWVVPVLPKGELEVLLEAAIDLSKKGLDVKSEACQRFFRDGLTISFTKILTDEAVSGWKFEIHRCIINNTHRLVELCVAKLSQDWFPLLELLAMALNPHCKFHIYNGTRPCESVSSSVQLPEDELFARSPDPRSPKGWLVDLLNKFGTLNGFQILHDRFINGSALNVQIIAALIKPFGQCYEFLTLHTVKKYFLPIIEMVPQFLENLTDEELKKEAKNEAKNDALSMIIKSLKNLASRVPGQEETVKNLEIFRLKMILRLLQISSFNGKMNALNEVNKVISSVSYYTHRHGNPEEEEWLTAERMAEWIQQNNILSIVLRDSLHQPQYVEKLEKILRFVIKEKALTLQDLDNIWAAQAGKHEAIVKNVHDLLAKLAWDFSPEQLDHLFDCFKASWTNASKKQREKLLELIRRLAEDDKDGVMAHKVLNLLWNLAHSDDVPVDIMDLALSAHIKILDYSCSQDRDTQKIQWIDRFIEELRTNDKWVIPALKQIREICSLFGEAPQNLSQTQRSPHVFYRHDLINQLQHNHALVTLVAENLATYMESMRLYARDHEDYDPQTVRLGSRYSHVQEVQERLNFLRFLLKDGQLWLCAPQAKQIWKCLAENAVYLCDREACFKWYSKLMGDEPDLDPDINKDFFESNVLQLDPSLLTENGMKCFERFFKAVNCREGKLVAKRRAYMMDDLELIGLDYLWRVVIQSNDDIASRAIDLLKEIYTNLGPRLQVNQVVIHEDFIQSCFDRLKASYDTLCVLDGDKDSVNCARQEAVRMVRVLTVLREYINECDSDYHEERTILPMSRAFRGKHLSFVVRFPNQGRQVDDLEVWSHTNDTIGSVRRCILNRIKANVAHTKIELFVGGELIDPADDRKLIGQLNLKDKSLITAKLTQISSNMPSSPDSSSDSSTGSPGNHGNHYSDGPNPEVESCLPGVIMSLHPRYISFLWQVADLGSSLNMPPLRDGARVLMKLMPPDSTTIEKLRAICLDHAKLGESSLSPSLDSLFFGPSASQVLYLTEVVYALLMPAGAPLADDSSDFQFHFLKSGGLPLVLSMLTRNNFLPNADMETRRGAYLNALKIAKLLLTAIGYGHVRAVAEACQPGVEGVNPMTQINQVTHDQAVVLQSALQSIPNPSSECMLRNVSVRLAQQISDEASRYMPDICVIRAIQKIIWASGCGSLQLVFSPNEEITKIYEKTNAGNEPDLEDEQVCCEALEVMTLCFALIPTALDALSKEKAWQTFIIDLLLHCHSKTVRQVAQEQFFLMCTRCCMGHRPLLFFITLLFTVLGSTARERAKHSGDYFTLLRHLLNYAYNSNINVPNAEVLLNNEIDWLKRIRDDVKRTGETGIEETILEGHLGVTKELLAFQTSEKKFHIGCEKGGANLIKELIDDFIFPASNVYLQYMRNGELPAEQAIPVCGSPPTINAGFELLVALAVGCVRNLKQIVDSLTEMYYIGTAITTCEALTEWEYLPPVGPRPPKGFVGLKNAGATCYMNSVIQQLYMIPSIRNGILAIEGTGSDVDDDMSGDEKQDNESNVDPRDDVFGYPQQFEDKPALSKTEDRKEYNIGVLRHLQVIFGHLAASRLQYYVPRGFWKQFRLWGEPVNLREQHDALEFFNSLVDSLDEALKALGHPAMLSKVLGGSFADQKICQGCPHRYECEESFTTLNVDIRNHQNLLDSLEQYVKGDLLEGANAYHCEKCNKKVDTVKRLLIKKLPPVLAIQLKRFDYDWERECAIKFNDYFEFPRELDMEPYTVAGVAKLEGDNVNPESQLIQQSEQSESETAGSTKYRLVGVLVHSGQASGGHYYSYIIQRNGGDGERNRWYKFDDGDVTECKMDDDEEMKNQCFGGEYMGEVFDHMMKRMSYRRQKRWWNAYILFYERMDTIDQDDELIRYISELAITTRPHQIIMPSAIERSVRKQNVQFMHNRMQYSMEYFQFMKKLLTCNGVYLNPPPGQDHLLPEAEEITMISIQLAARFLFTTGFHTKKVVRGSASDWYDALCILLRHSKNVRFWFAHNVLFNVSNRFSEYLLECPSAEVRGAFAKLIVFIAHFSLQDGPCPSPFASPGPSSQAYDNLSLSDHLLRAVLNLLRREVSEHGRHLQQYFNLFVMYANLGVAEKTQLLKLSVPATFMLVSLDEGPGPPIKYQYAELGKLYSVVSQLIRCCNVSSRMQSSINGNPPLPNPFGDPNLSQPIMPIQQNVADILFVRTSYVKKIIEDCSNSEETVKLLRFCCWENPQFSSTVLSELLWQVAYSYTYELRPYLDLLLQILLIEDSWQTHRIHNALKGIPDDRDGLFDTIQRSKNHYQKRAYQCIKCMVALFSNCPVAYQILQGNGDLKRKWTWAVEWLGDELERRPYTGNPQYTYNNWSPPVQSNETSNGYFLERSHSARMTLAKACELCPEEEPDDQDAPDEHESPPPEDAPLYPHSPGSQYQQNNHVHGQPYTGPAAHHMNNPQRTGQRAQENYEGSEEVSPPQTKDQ

For `CC(C)C[C@H](NC(=O)C1(C(F)(F)F)CCCCC1)C(=O)Nc1nnc(Cc2ccc(C#N)cc2)s1`, the outcome in test [1], in test [2] and in test [3] was inactive. For the same compound, in test [4], the inhibition result was “inactive”.
In the case of `CC(NC(=O)C1CCCC1)C(=O)Nc1nnc(Cc2ccc([N+](=O)[O-])cc2)s1` (racemic), the Activity in test [5], in test [6] and in test [7] was < 50% throughout.
